Data set [1] deals with Beet Armyworm (Spodoptera exigua) ("BAW"), second instar larvae. The data set can be described thus: Bioassay on beet armyworm (BAW), 128-well diet tray assay. Format: in vivo. The following applies: for pest or weed control at 50 µg/cm2: Spodoptera exigua; for BAW rating / BAW rating (% control or mortality class): Table ABC, species BAW; for BAW rating: C = not tested, D = no activity noticed; for BAW rating (% control or mortality class): 128-well diet tray assay, second instar larvae. Summed up: (§1)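 Second-instar larvae on diet in 128-well trays, covered and held at 25° C, 14:10 light-dark, for five to seven days. Percent mortality scored per well and averaged over eight wells; activity reported as a rating category.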

For data set [2], the system named is Cabbage Looper (Trichoplusia ni) ("CL"), second instar larvae. The data set can be described thus: Bioassay on cabbage looper (CL), 128-well diet tray assay. Format: in vivo. As to conditions: for pest or weed control at 50 µg/cm2 / mortality at 50 µg/cm2: Trichoplusia ni; for CL rating / mortality at 50 µg/cm2: Table ABC, species CL; for CL rating: C = not tested, D = no activity noticed; for mortality at 50 µg/cm2: 128-well diet tray assay, second instar larvae, read-out: CL rating (% control or mortality class). A digest of the protocol:
as §1

The mark [3] stands for this setting: read-out: BAW (Biological Results, rating).
The mark [4] stands for this setting: read-out: CL (Biological Results, rating).

Read-outs that look alike come from different tables or passages of the source.

Consider `Cc1cc(-c2ncn(-c3ccc(S(=O)(=O)C(F)(F)F)cc3)n2)ccc1NC(=O)/N=C1\SCC(=O)N1c1cc(C#N)ccc1OCCC(F)(F)F` [Compound J376, (Z)-1-(3-(5-Cyano-2-(3,3,3-trifluoropropoxy)phenyl)-4-oxothiazolidin-2-ylidene)-3-(2-methyl-4-(1-(4-((trifluoromethyl)sulfonyl)phenyl)-1H-1,2,4-triazol-3-yl)phenyl)urea], for which the pest or weed control at 50 µg/cm2 in data set [1] (read-out: BAW rating) and in data set [2] (read-out: CL rating) was 50 to 100% in each case.

Consider `Cc1ccc(C(C)C)c(N2C(=O)CS/C2=N\C(=O)Nc2c(C)cc(-c3ncn(-c4ccc(OC(F)(F)F)cc4)n3)cc2C)c1` [Compound J95, (Z)-1-(2,6-Dimethyl-4-(1-(4-(trifluoromethoxy)phenyl)-1H-1,2,4-triazol-3-yl)phenyl)-3-(3-(2-isopropyl-5-methylphenyl)-4-oxothiazolidin-2-ylidene)urea], for which the pest or weed control at 50 µg/cm2 in data set [1] (setting [3]) and in data set [2] (setting [4]) was 50 to 100% each time.

On to `COC(C)c1ccc(C)cc1N1C(=O)CS/C1=N\C(=O)Nc1ccc(-c2ncn(-c3ccc(S(F)(F)(F)(F)F)cc3)n2)cc1F` (centres unmarked) [Compound J423], for which the BAW rating entry in data set [1] is reported as “A (50-100)”. Moreover, the CL rating result in data set [2] was “A (50-100)”.

For the molecule `CC(C)c1cc(F)c(N(C)C)cc1N1C(=O)CS/C1=N\C(=O)Nc1ccc(-c2nnc(-c3ccc(OC(F)(F)F)cc3)o2)cc1F` [Compound J432, (Z)-1-(3-(5-(Dimethylamino)-4-fluoro-2-isopropylphenyl)-4-oxothiazolidin-2-ylidene)-3-(2-fluoro-4-(5-(4-(trifluoromethoxy)phenyl)-1,3,4-oxadiazol-2-yl)phenyl)urea], the pest or weed control at 50 µg/cm2 in data set [1] (read-out: BAW rating) and in data set [2] (read-out: CL rating) was 50 to 100% each time.

As to `CC(C)c1ccc(N(C)C)cc1N1C(=O)CS/C1=N\C(=O)Nc1ccc(-c2cn(-c3ccc(S(F)(F)(F)(F)F)cc3)cn2)cc1F` [Compound J603, (Z)-1-(3-(5-(Dimethylamino)-2-isopropylphenyl)-4-oxothiazolidin-2-ylidene)-3-(2-fluoro-4-(1-(4-(pentafluoro-λ^6-sulfaneyl)phenyl)-1H-imidazol-4-yl)phenyl)urea], the pest or weed control at 50 µg/cm2 in data set [1] (read-out: BAW rating) and in data set [2] (read-out: CL rating) was 50 to 100% throughout.

Take `Cc1ccc(-n2cnc(-c3ccc(NC(=O)/N=C4\SCC(=O)N4c4cc(C)ccc4COCC(F)(F)F)c(F)c3)n2)cc1` [Compound J752]: in data set [1], the BAW rating result was “A (50-100)”. Further, the CL rating result in data set [2] was “A (50-100)”.

In the case of `COc1ccc(C(C)C)c(N2C(=O)CS/C2=N\C(=O)Nc2ccc(-c3ncn(-c4ccc(OC(F)(F)F)cc4)n3)cc2C#N)c1` [Compound J246, (Z)-1-(2-Cyano-4-(1-(4-(trifluoromethoxy)phenyl)-1H-1,2,4-triazol-3-yl)phenyl)-3-(3-(2-isopropyl-5-methoxyphenyl)-4-oxothiazolidin-2-ylidene)urea], the pest or weed control at 50 µg/cm2 in data set [1] (setting [3]) and in data set [2] (setting [4]) was 50 to 100% each time.

As for `Cc1cc(-c2cn(-c3ccc(S(F)(F)(F)(F)F)cc3)cn2)ccc1NC(=O)/N=C1\SCC(=O)N1c1cc(N(C)C)c(F)cc1C(C)C` [Compound J619, (Z)-1-(3-(5-(Dimethylamino)-4-fluoro-2-isopropylphenyl)-4-oxothiazolidin-2-ylidene)-3-(2-methyl-4-(1-(4-(pentafluoro-λ^6-sulfaneyl)phenyl)-1H-imidazol-4-yl)phenyl)urea], the pest or weed control at 50 µg/cm2 in data set [1] (read-out: BAW rating) and in data set [2] (read-out: CL rating) was 50 to 100% in each case.

Take `COC(C)c1ccc(C)cc1N1C(=O)CS/C1=N\C(=O)Nc1ccc(-c2ncn(-c3ccc(SC(F)(F)F)cc3)n2)cc1C` (centres unmarked) [Compound J233, (Z)-1-(3-(2-(1-Methoxyethyl)-5-methylphenyl)-4-oxothiazolidin-2-ylidene)-3-(2-methyl-4-(1-(4-((trifluoromethyl)thio)phenyl)-1H-1,2,4-triazol-3-yl)phenyl)urea]: the pest or weed control at 50 µg/cm2 in data set [1] (setting [3]) and in data set [2] (setting [4]) was 50 to 100% throughout.

Take `CCOCc1ccc(C)cc1N1C(=O)CS/C1=N\C(=O)Nc1ccc(-c2ncn(-c3cccc(OC(F)(F)F)c3)n2)cc1C` [Compound J726]: the BAW rating result in data set [1] is “A (50-100)”. Moreover, in data set [2], the CL rating result is “A (50-100)”.

With `COc1ccc(OCCC(F)(F)F)c(N2C(=O)CS/C2=N\C(=O)Nc2ccc(-c3ncn(-c4ccc(OC(F)(F)F)cc4)n3)cc2F)c1` [Compound J92, (Z)-1-(2-Fluoro-4-(1-(4-(trifluoromethoxy)phenyl)-1H-1,2,4-triazol-3-yl)phenyl)-3-(3-(5-methoxy-2-(3,3,3-trifluoropropoxy)phenyl)-4-oxothiazolidin-2-ylidene)urea], the pest or weed control at 50 µg/cm2 in data set [1] (setting [3]) and in data set [2] (setting [4]) was 50 to 100% in each case.

On to `COc1ccc(C(C)C)c(N2C(=O)CS/C2=N\C(=O)Nc2ccc(-c3ncn(-c4ccc(OC(F)(F)F)cc4)n3)cc2C(C)C)c1` [Compound J100, (Z)-1-(2-Isopropyl-4-(1-(4-(trifluoromethoxy)phenyl)-1H-1,2,4-triazol-3-yl)phenyl)-3-(3-(2-isopropyl-5-methoxyphenyl)-4-oxothiazolidin-2-ylidene)urea], for which the pest or weed control at 50 µg/cm2 in data set [1] (setting [3]) and in data set [2] (setting [4]) was 50 to 100% throughout.

One may read the mortality as the percentage killed. Consider `COCc1ccc(N(C)C)cc1N1C(=O)CS/C1=N\C(=O)Nc1ccc(-n2cnc(-c3ccc(OC(F)(F)F)cc3)c2)cc1Cl` [Compound J789, (Z)-1-(2-Chloro-4-(4-(4-(trifluoromethoxy)phenyl)-1H-imidazol-1-yl)phenyl)-3-(3-(5-(dimethylamino)-2-(methoxymethyl)phenyl)-4-oxothiazolidin-2-ylidene)urea], for which the “BAW rating (% control or mortality class)” value in data set [1] is on record as “A (50-100)”. Moreover, the mortality at 50 µg/cm2 in data set [2] lay in the range of 50 to 100%.

In the case of `COC(c1ccc(C)cc1N1C(=O)CS/C1=N\C(=O)Nc1ccc(-n2cnc(-c3ccc(C(F)(F)F)cc3)n2)cc1F)C(F)(F)F` (centres unmarked) [Compound J696, (Z)-1-(2-Fluoro-4-(3-(4-(trifluoromethyl)phenyl)-1H-1,2,4-triazol-1-yl)phenyl)-3-(3-(5-methyl-2-(2,2,2-trifluoro-1-methoxyethyl)phenyl)-4-oxothiazolidin-2-ylidene)urea], the pest or weed control at 50 µg/cm2 in data set [1] (read-out: BAW rating) and in data set [2] (read-out: CL rating) was 50 to 100% throughout.

Consider `Cc1ccc(C(C)C)c(N2C(=O)CS/C2=N\C(=O)Nc2ccc(-c3ncn(-c4ccc(C(F)(F)F)cn4)n3)cc2Cl)c1` [Compound J295, (Z)-1-(2-Chloro-4-(1-(5-(trifluoromethyl)pyridin-2-yl)-1H-1,2,4-triazol-3-yl)phenyl)-3-(3-(2-isopropyl-5-methylphenyl)-4-oxothiazolidin-2-ylidene)urea], for which the pest or weed control at 50 µg/cm2 in data set [1] (setting [3]) and in data set [2] (setting [4]) was 50 to 100% throughout.

In the case of `Cc1ccc(COCCF)c(N2C(=O)CS/C2=N\C(=O)Nc2ccc(-c3ncn(-c4ccc(OC(F)(F)C(F)(F)F)cc4)n3)cc2C)c1` [Compound J801, (Z)-1-(3-(2-((2-Fluoroethoxy)methyl)-5-methylphenyl)-4-oxothiazolidin-2-ylidene)-3-(2-methyl-4-(1-(4-(perfluoroethoxy)phenyl)-1H-1,2,4-triazol-3-yl)phenyl)urea], the “BAW rating (% control or mortality class)” value in data set [1] was “A (50-100)”. Moreover, the mortality at 50 µg/cm2 in data set [2] lay within 50 to 100%.
